Reference: US20140234345A1, “NOVEL ANTI-CANCER ISOC[…] CONJUGATES” (priority 2011, published 2014)

How the values were obtained:
[1] = system: pancreas tumour cell line; assay: In vitro tumour cell line testing, pancreas; format: cell-based; conditions: for effect on pancreas tumour cell line: after 48 hours
Protocol: (§1) A549 (CCL-185), BxPC-3 (CRL-1687), HeLa (CCL-2), LoVo (CCL-229), MCF-7 (HTB-22), and PC-3 (CRL-1435) cells were purchased from ATCC (Manassas, Va.). Alamar Blue was purchased from Invitrogen Canada Inc. (Burlington, ON). All other tissue culture and reagent grade materials were purchased from either VWR (Mississauga, ON) or Sigma Aldrich (Oakville, ON).
(§2) All cell lines were maintained at 37° C. in a CO2 cell culture incubator with 5% CO2 and 95% humidity. A549, Lovo, and PC-3 cells were cultured in F-12K media, BxPC-3 cells were culture in RPMI-1640 media, and HeLa and MCF-7 cells were cultured in Eagle's Minimum Essential Media (MEM) with […]. All cell culture media was supplemented with 10% fetal bovine serum (FBS), […] Penicillin, 0.1 mg/mL Streptomycin, 2.5 μg/mL Amphotericin B, and 50 μg/mL Gentamycin. In addition, MEM media for MCF-7 cells also contained 0.01 mg/mL bovine insulin.

[2] = system: cervical tumour cell line; assay: In vitro tumour cell line testing, cervical; format: cell-based; conditions: for effect on cervical tumour cell line: after 48 hours
Protocol: as §1, §2

[3] = system: Healthy PBMC (Peripheral Blood Mononuclear Cells); assay: Cell viability of healthy PBMC
Protocol: (§3) All cell lines were plated in black, tissue culture treated, 96 well plates at a cell density of 1×10^5 celis/mL (1×10^4 cells/well). Cells were allowed 24 h to attach to the plate prior to being dosed with drug. […] Cells were allowed to incubate for 48 or 72 h. Following incubation cells were stained with Alamar Blue such that the final concentration of Alamar Blue in the test well was 10%. Cells were stained for 2 h and then fluorescence was measured on a Molecular Devices Analyst GT multimode plate reader using an excitation filter of 530/25 nm and an emission filter of 580/10 nm and a 561 nm dichroic mirror. Cell viability was expressed as a percentage of untreated control cells. Data are expressed as mean±standard error and are the average of four independent cell preparations.
(§4) Healthy PBMC (Peripheral Blood Mononuclear Cells) were treated similarly to the above tumour cell line tests.

[4] = Cell viability of healthy PBMC
Protocol: as §3, §4

[5] = system: colorectal tumour cell line; assay: In vitro tumour cell line testing, colorectal; format: cell-based; conditions: for effect on colorectal tumour cell line: after 48 hours
Protocol: as §1, §2

[6] = system: prostate tumour cell line; assay: In vitro tumour cell line testing, prostate; format: cell-based; conditions: for effect on prostate tumour cell line: after 48 hours
Protocol: as §1, §2

[7] = system: lung tumour cells; assay: In vitro tumour cell line testing, lung; format: cell-based; conditions: after 72 hours
Protocol: as §1, §2

[8] = system: A549, BxPC-3, HeLa, LoVo, MCF-7 and PC-3 cells; assay: In vitro testing on various tumour cell lines (Alamar Blue cell viability); format: cell-based; conditions: after 48 hours
Protocol: as §1, §2

[9] = I(a) concentration in Cremophor EL:ethanol composition (HPLC); format: physicochemical; conditions: 1:60 w/w I(a):CrEL, ethanol 1:1 v/v to CrEL, room temperature
Protocol: One to sixty (1:60) ratio by weight of compound I(a) to CrEL was mixed into a glass vial and stirred for about one hour at room temperature to allow solubilization. Dehydrated ethanol USP was then added at a ratio (v/v) one to one (1:1) to CrEL. The mixture was stirred for half hour to ensure the dissolution of the mixture. The final solution was then tested by HPLC to verify compound I(a) concentration.

[10] = Amount of I(a) dissolved in Vitamin E TPGS composition (HPLC assay of centrifugate); format: physicochemical; conditions: 15:100 w/w I(a):Vitamin E TPGS, 45° C., water 8 ml per 100 mg Vitamin E, centrifuged
Protocol: A stir bar was then added and the solution was continuously mixed while at 45° C. for a minimum of 2 hours to allow full saturation of the product. […] The mixture was then cooled to room temperature, and centrifuged to separate the undissolved material. The centrifugate was assayed for the amount of compound I(a) using HPLC.

Row | SMILES | effect on pancreas tumour cell line [1] | effect against pancreas cancer ([1]; after 72 hours) | effect on cervical tumour cell line [2] | results on cervical tumour cells ([2]; after 72 hours) | selectivity for cancer cells over healthy cells ([3]; PBMC tests compared to tumour cell line tests) | PBMC cell death compared to narciclasine ([3]; in DMSO, 48 and 72 hours) | viability [4] [%] | viability at 2.265 µM [4] [%] | effect on colorectal tumour cell line [5] | effect against colorectal cancer ([5]; after 72 hours) | effect on prostate tumour cell line [6] | results on prostate tumour cells ([6]; after 72 hours) | results on lung tumour cells [7] | anti-cancer effect against a wide variety of cancers [8] | amount of I(a) contained in resultant formulation [9] [mg/mL] | amount of I(a) contained in resultant formulation [10] [mg/mL]
1 | CC/C=C\C/C=C\C/C=C\C/C=C\C/C=C\C/C=C\CCC(=O)O[C@H]1C=C2c3cc4c(c(O)c3C(=O)N[C@H]2[C@H](O)[C@@H]1O)OCO4 [Compound I(a), Narciclasine 2-Hydroxy DHA Conjugate] | strong effect | works well | strong effect | good results | selectively kill cancer cells at a much higher percentage than healthy cells | small increase of cell death | ~90 | > 60 | strong effect | works well | strong effect | good results | good results | strong anti-cancer effect | 9.9 | 1.8 to 1.9
2 | O=C1N[C@@H]2C(=C[C@H](O)[C@@H](O)[C@H]2O)c2cc3c(c(O)c21)OCO3 [narciclasine, reference compound] | strong effect |  | strong effect |  |  |  |  |  | strong effect |  | strong effect |  |  | strong anti-cancer effect |  | 
